Converted amounts (≈) assume the structure as drawn.
Tested on: Staphylococcus aureus
Test: Antibacterial against Staphylococcus aureus
Type: functional
Conditions: for MIC: Staphylococcus aureus

| Structure (SMILES) | MIC [µg/mL] | -logMIC |
| --- | --- | --- |
| Oc1ccc(-c2nc(-c3ccc(Oc4ccccc4)cc3)no2)cc1 | – | 5.8 |
| Oc1ccc(-c2nc(-c3ccc(Oc4ccc(C(F)(F)F)cc4)cc3)no2)cc1 | – | 5.987 |
| Nc1ccc(-c2nc(-c3ccc(Oc4ccccc4)cc3)no2)cc1 | – | 4.411 |
| Nc1ccc(-c2nc(-c3ccc(Oc4ccc(C(F)(F)F)cc4)cc3)no2)cc1 | – | 5.985 |
| FC(F)(F)c1ccc(Oc2ccc(-c3noc(-c4n[nH]cc4Cl)n3)cc2)cc1 | – | 6.008 |
| Brc1c[nH]nc1-c1nc(-c2ccc(Oc3ccccc3)cc2)no1 | – | 5.949 |
| FC(F)(F)c1ccc(Oc2ccc(-c3noc(-c4n[nH]cc4Br)n3)cc2)cc1 | – | 6.11 |
| Ic1c[nH]nc1-c1nc(-c2ccc(Oc3ccccc3)cc2)no1 | – | 6.064 |
| FC(F)(F)c1ccc(Oc2ccc(-c3noc(-c4n[nH]cc4I)n3)cc2)cc1 | – | 5.518 |
| O=[N+]([O-])c1c[nH]nc1-c1nc(-c2ccc(Oc3ccccc3)cc2)no1 | – | 5.163 |
| O=[N+]([O-])c1c[nH]nc1-c1nc(-c2ccc(Oc3ccc(C(F)(F)F)cc3)cc2)no1 | – | 5.341 |
| O=[N+]([O-])c1c[nH]nc1-c1nc(-c2ccc(Oc3ccc(F)cc3)cc2)no1 | – | 5.906 |
| N#Cc1c[nH]nc1-c1nc(-c2ccc(Oc3ccc(C(F)(F)F)cc3)cc2)no1 | – | 5.292 |
| OCC#Cc1c[nH]nc1-c1nc(-c2ccc(Oc3ccc(C(F)(F)F)cc3)cc2)no1 | – | 4.669 |
| Oc1ccc(-c2nc(-c3ccc(Oc4ccccc4)cc3)no2)cc1F | – | 4.467 |
| Oc1ccc(-c2nc(-c3ccc(Oc4ccc(C(F)(F)F)cc4)cc3)no2)cc1F | – | 5.338 |
| Oc1ccc(-c2nc(-c3ccc(Oc4ccc(F)cc4)cc3)no2)cc1F | – | 5.21 |
| Oc1c(F)cc(-c2nc(-c3ccc(Oc4ccc(F)cc4)cc3)no2)cc1F | – | 3.872 |
| Nc1ccc(-c2nc(-c3ccc(Oc4ccc(C(F)(F)F)cc4)cc3)no2)cc1F | – | 5.336 |
| Nc1c(F)cc(-c2nc(-c3ccc(Oc4ccccc4)cc3)no2)cc1F | – | 3.821 |
| FC(F)(F)c1ccc(Oc2ccc(-c3noc(-c4ccc5[nH]ccc5c4)n3)cc2)cc1 | – | 4.657 |
| O=[N+]([O-])c1cc(-c2nc(-c3ccc(Oc4ccc(C(F)(F)F)cc4)cc3)no2)cnc1O | – | 4.017 |

| Structure (SMILES) | MIC [µg/mL] | -logMIC |
| --- | --- | --- |
| O=[N+]([O-])c1cc(-c2nc(-c3ccc(Oc4ccc(F)cc4)cc3)no2)cnc1O | – | 3.898 |
| Nc1c[nH]nc1-c1nc(-c2ccc(Oc3ccc(F)cc3)cc2)no1 | – | 3.048 |
| CCOP(=O)(OCC)c1c[nH]nc1-c1nc(-c2ccc(Oc3ccc(C(F)(F)F)cc3)cc2)no1 | 128 (≈ 252 µM) | 1.379 |
| c1ccc(Oc2ccc(-c3noc(-c4ccncc4)n3)cc2)cc1 | 128 (≈ 406 µM) | 0.902 |
| Nc1cc(-c2nc(-c3ccc(Oc4ccc(F)cc4)cc3)no2)cnc1O | 128 (≈ 351 µM) | 1.046 |
| Fc1ccc(Oc2ccc(-c3noc(-c4c[nH]c5ncccc45)n3)cc2)cc1 | 128 (≈ 344 µM) | 1.068 |
| O=[N+]([O-])c1c[nH]c(-c2nc(-c3ccc(Oc4ccc(F)cc4)cc3)no2)c1 | 128 (≈ 349 µM) | 1.052 |
| Nc1c[nH]c(-c2nc(-c3ccc(Oc4ccc(F)cc4)cc3)no2)c1 | 128 (≈ 381 µM) | 0.966 |
| Brc1ccc(-c2nc(-c3ccccc3)no2)cc1 | 128 (≈ 425 µM) | 0.856 |
| O=[N+]([O-])c1c(F)cc(-c2nc(-c3ccc(Oc4ccccc4)cc3)no2)cc1F | 128 (≈ 324 µM) | 1.128 |
| O=[N+]([O-])c1ccc(-c2nc(-c3ccc(Oc4ccccc4)cc3)no2)cc1F | 128 (≈ 339 µM) | 1.081 |
| O=[N+]([O-])c1c(F)cc(-c2nc(-c3ccc(Oc4ccc(C(F)(F)F)cc4)cc3)no2)cc1F | 128 (≈ 276 µM) | 1.286 |
| Oc1ccc(-c2nc(-c3ccc(F)cc3)no2)cc1 | 128 (≈ 500 µM) | 0.694 |
| Oc1ccc(-c2nc(-c3ccc(Oc4cccnc4)cc3)no2)cc1 | 128 (≈ 386 µM) | 0.951 |
| Oc1ccc(-c2nc(-c3ccc(Oc4ccc(CBr)cc4)cc3)no2)cc1 | 128 (≈ 302 µM) | 1.196 |
| O=[N+]([O-])c1ccc(-c2nc(-c3ccc(Oc4ccc(C(F)(F)F)cc4)cc3)no2)cc1F | 128 (≈ 287 µM) | 1.247 |
| Oc1ccc(-c2noc(-c3ccc(O)cc3)n2)cc1 | 128 (≈ 503 µM) | 0.686 |
| CC(=O)N(C(C)=O)c1c[nH]nc1-c1nc(-c2ccc(Oc3ccc(C(F)(F)F)cc3)cc2)no1 | 128 (≈ 272 µM) | 1.304 |
| CCC(C)Nc1c[nH]nc1-c1nc(-c2ccc(Oc3ccc(C(F)(F)F)cc3)cc2)no1 (centres undefined) | 128 (≈ 289 µM) | 1.243 |
| O=P(O)(O)Oc1ccc(Oc2ccc(-c3noc(-c4ccc(F)cc4)n3)cc2)cc1 | 128 (≈ 299 µM) | 1.208 |
| O=C1COc2cc(-c3nc(-c4ccc(Oc5ccccc5)cc4)no3)ccc2N1 | 128 (≈ 332 µM) | 1.102 |
| Oc1ccc(-c2nc(-c3ccc(Oc4ccncc4)cc3)no2)cc1 | 128 (≈ 386 µM) | 0.951 |

More lines, in order of falling MIC, values ahead:

| MIC [µg/mL] | Structure (SMILES) | -logMIC |
| --- | --- | --- |
| 128 (≈ 503 µM) | O=c1[nH]c(-c2ccc(Oc3ccccc3)cc2)no1 | 0.686 |
| 128 (≈ 385 µM) | Fc1ccc(-c2nc(-c3ccc(Oc4ccccc4)cc3)no2)cc1 | 0.954 |
| 128 (≈ 356 µM) | O=[N+]([O-])c1ccc(-c2nc(-c3ccc(Oc4ccccc4)cc3)no2)cc1 | 1.032 |
| 128 (≈ 310 µM) | O=P(O)(O)c1ccc(-c2nc(-c3ccc(Oc4ccc(F)cc4)cc3)no2)cc1 | 1.17 |
| 128 (≈ 269 µM) | CS(=O)(=O)Nc1ccc(-c2nc(-c3ccc(Oc4ccc(C(F)(F)F)cc4)cc3)no2)cc1 | 1.312 |
| 128 (≈ 277 µM) | NS(=O)(=O)c1ccc(-c2nc(-c3ccc(Oc4ccc(C(F)(F)F)cc4)cc3)no2)cc1 | 1.282 |
| 128 (≈ 311 µM) | NS(=O)(=O)c1ccc(-c2nc(-c3ccc(Oc4ccc(F)cc4)cc3)no2)cc1 | 1.168 |
| 128 (≈ 340 µM) | O=C(O)c1ccc(-c2nc(-c3ccc(Oc4ccc(F)cc4)cc3)no2)cc1 | 1.079 |
| 128 (≈ 328 µM) | COC(=O)c1ccc(-c2nc(-c3ccc(Oc4ccc(F)cc4)cc3)no2)cc1 | 1.115 |
| 128 (≈ 387 µM) | Oc1ccccc1-c1nc(-c2ccc(Oc3ccccc3)cc2)no1 | 0.948 |
| 128 (≈ 329 µM) | COc1ccc(-c2nc(-c3ccc(Oc4ccccc4)cc3)no2)cc1[N+](=O)[O-] | 1.113 |
| 128 (≈ 314 µM) | COc1ccc(-c2nc(-c3ccc(Oc4ccc(F)cc4)cc3)no2)cc1[N+](=O)[O-] | 1.158 |
| 128 (≈ 326 µM) | COc1ccc(-c2nc(-c3ccc(Oc4ccc(F)cc4)cc3)no2)cc1OC | 1.12 |
| 128 (≈ 344 µM) | FC(F)(F)c1ccc(Oc2ccc(-c3noc(-c4cc[nH]n4)n3)cc2)cc1 | 0.923 |
| 128 (≈ 289 µM) | CCCCNc1c[nH]nc1-c1nc(-c2ccc(Oc3ccc(C(F)(F)F)cc3)cc2)no1 | 1.243 |
| 128 (≈ 273 µM) | FC(F)(F)c1ccc(Oc2ccc(-c3noc(-c4n[nH]cc4NC4CCCCC4)n3)cc2)cc1 | 1.3 |
| 128 (≈ 281 µM) | FC(F)(F)c1ccc(Oc2ccc(-c3noc(-c4n[nH]cc4NC4CCCC4)n3)cc2)cc1 | 1.269 |
| 128 (≈ 260 µM) | O=C(Nc1c[nH]nc1-c1nc(-c2ccc(Oc3ccc(C(F)(F)F)cc3)cc2)no1)c1ccccc1 | 1.345 |
| 128 (≈ 260 µM) | O=C(Nc1c[nH]nc1-c1nc(-c2ccc(Oc3ccc(C(F)(F)F)cc3)cc2)no1)c1ccccn1 | 1.347 |
| 64 (≈ 171 µM) | O=C(O)c1ccc(Oc2ccc(-c3noc(-c4ccc(O)cc4)n3)cc2)cc1 | 1.766 |

| MIC [µg/mL] | Structure (SMILES) | -logMIC |
| --- | --- | --- |
| 8 (≈ 23 µM) | Oc1ccc(-c2nc(-c3ccc(Oc4ccccc4)c(F)c3)no2)cc1 | 3.774 |
| 8 (≈ 16.8 µM) | O=[N+]([O-])c1c[nH]nc1-c1nc(-c2ccc(Oc3ccc(I)cc3)cc2)no1 | 4.084 |
| 8 (≈ 22.5 µM) | Nc1c[nH]nc1-c1nc(-c2ccc(Oc3ccc(F)c(F)c3)cc2)no1 | 3.794 |
| 8 (≈ 21.3 µM) | O=[N+]([O-])c1cc(-c2noc(-c3ccc(O)cc3)n2)ccc1Oc1ccccc1 | 3.848 |
| 4 (≈ 11.3 µM) | c1ccc(Oc2ccc(-c3noc(-c4ccc5[nH]ccc5c4)n3)cc2)cc1 | 5.174 |
| 4 (≈ 9.38 µM) | O=C(c1cccc(Oc2ccc(-c3noc(-c4ccc(O)cc4)n3)cc2)c1)C(F)(F)F | 4.669 |
| 4 (≈ 10.7 µM) | O=[N+]([O-])c1ccccc1Oc1ccc(-c2noc(-c3ccc(O)cc3)n2)cc1 | 4.542 |
| 4 (≈ 9.45 µM) | Oc1ccc(-c2nc(-c3ccc(Oc4cccc(CBr)c4)cc3)no2)cc1 | 4.662 |
| 4 (≈ 9.77 µM) | Oc1ccc(-c2nc(-c3ccc(Oc4cccc(Br)c4)cc3)no2)cc1 | 4.628 |
| 2 (≈ 4.62 µM) | Nc1c(F)cc(-c2nc(-c3ccc(Oc4ccc(C(F)(F)F)cc4)cc3)no2)cc1F | 5.378 |
| 2 (≈ 5.39 µM) | Fc1ccc(Oc2ccc(-c3noc(-c4ccc5[nH]ccc5c4)n3)cc2)cc1 | 5.224 |
| 2 (≈ 4.89 µM) | Oc1ccc(-c2nc(-c3ccc(Oc4ccc(Br)cc4)cc3)no2)cc1 | 5.321 |
| 2 (≈ 5.39 µM) | [N-]=[N+]=Nc1ccc(Oc2ccc(-c3noc(-c4ccc(O)cc4)n3)cc2)cc1 | 5.224 |
| 2 (≈ 5.39 µM) | [N-]=[N+]=Nc1cc(-c2noc(-c3ccc(O)cc3)n2)ccc1Oc1ccccc1 | 5.224 |
| 2 (≈ 5.55 µM) | COc1ccc(Oc2ccc(-c3noc(-c4ccc(O)cc4)n3)cc2)cc1 | 5.194 |
| 2 (≈ 5.11 µM) | Fc1ccc(Oc2ccc(-c3noc(-c4n[nH]cc4Cl)n3)cc2)cc1Cl | 5.276 |
| 1 (≈ 2.15 µM) | Clc1c[nH]nc1-c1nc(-c2ccc(Oc3ccc(I)cc3)cc2)no1 | 6.141 |
| 1 (≈ 2.39 µM) | Fc1ccc(Oc2ccc(-c3noc(-c4n[nH]cc4Br)n3)cc2)cc1F | 6.038 |
| 0.5 (≈ 1.33 µM) | Fc1ccc(Oc2ccc(-c3noc(-c4n[nH]cc4Cl)n3)cc2)cc1F | 6.619 |
| 0.25 (≈ 0.631 µM) | C#Cc1c[nH]nc1-c1nc(-c2ccc(Oc3ccc(C(F)(F)F)cc3)cc2)no1 | 7.369 |

From ChEMBL document CHEMBL3751781, “Three-dimensional QSAR analysis and design of new 1,2,4-oxadiazole antibacterials” (2016)
